# Source: article PMC8803746, “Two experts and a newbie: [^18F]PARPi vs [^18F]FTT vs [^18F]FPyPARP—a comparison of PARP imaging agents” (European Journal of Nuclear Medicine and Molecular Imaging, 2021)
# Values joined by “and” are separate entries in the source; they are usually repeats but may differ in a detail not shown here. Equal values may be shown once. Read-outs that look alike come from different tables or passages of the source.
# What was measured:
# [1] = Experimental logP and logD determination (1-octanol/water or PBS, gamma counter); assay type: physicochemical; details: experimentally determined; for logD: 1-octanol/PBS; for logP: 1-octanol/water
# Method: One microliter radiotracer solution (0.4 MBq) was added to a mixture of 500 µl water or PBS and 500 µl 1-octanol. After thorough shaking, the suspension was shortly centrifuged for phase separation, samples were drawn from each phase, and radioactivity concentration was measured in a gamma counter (WIZARD2, PerkinElmer, Waltham, MA, USA).
# [2] = Serum stability analysis in mouse serum; assay type: in vitro ADME; details: C57BL/6 J mouse serum, 37 °C, over 240 min, HPLC
# Method: (§1) Serum stability was assessed by mixing [^18F]FPyPARP solution 1:1 with C57BL/6 J mouse or human (blood type AB + , Sigma-Aldrich, Steinheim, Germany) serum. After 0-, 30-, 60-, 120-, and 240-min incubation at 37 °C, samples were drawn and the proteins were precipitated by adding ice-cold MeCN to a final concentration of 50%. The supernatant after centrifugation (12,100 × g, 90 s) was analyzed by HPLC as described for radiotracer quality control.
# [3] = Serum stability analysis in human serum; assay type: in vitro ADME; details: 37 °C, over 240 min, HPLC
# Method: as §1
# HCC1937 cells = experiment: In vitro radiotracer uptake, acid wash; assay type: cell-based, human; details: glycine-HCl in PBS 50 mM pH 2.8 vs medium
# Method: For the acid wash, cells were distributed in 96-well filter plates as described before and incubated with the radiotracer solution for 30 min at 37 °C. After an initial wash with 100 µl medium, cells were either washed twice (1: 100 µl, 2: 200 µl) with medium or with glycine–HCl in PBS (50 mM, pH 2.8) followed by a final wash with 200 µl medium and measured in a gamma counter.
# HCC1937 xenografts = experiment: PET/MR imaging and ex vivo biodistribution in xenograft-bearing mice; set-up: species or system NOD.CB17-Prkdc^scid/J mice; details: for Xenograft uptake (TACs from dynamic PET): 1-h dynamic PET; for tumor-to-muscle ratio (TMR) / tumor-to-blood ratio (TBR): ex vivo biodistribution; for tumor-to-muscle ratio (TMR) / tumor-to-blood ratio (TBR) / liver-to-kidney ratio (LKR): mean value; for Renal clearance / bladder uptake in PET images: i.v., dynamic PET, minutes 50-60
# Method: (§2) All animal experiments were performed according to the German animal welfare act and approved by the local authorities (Regierungspräsidium Tübingen, R3/18). Animals were housed in individually ventilated cages (IVCs, 5 mice per cage) with bedding and enrichment, and food and water was provided ad libitum. Animals were kept under isoflurane anesthetic (1.5% in pure oxygen, 1.5 l/min) during the experiments. In 1:1 ice-cold Matrigel (Thermo Scientific)/PBS, 1 × 10^7 cells were injected subcutaneously in the right shoulder area of 7-week-old female NOD.CB17-Prkdc^scid/J mice (n = 10 per tracer). After the xenografts reached a suitable size (302 ± 152 mm^3), mice were injected with 12.45 ± 0.87 MBq, 12.68 ± 0.39 MBq, and 12.94 ± 0.45 MBq, respectively, of [^18F]PARPi, [^18F]FPyPARP, and [^18F]FTT and subjected to 1-h dynamic (n = 7 per tracer) or 10-min static (n = 3 per tracer, 1-h resting uptake) PET imaging (Inveon D-PET, Siemens, Knoxville, TN, USA) with subsequent magnetic resonance (MR) anatomical scans using a 7-T Biospec 70/30 USR (Clinscan, Bruker Biospin MRI GmbH) and a T2-weighted spin echo sequence. Five mice of each dynamically acquired group underwent a second, 10-min static PET scan 2-h post-injection (p.i.). Mice were sacrificed by cervical dislocation, the collected organs were weighed, and the tissue uptake was determined by gamma-counting (WIZARD2). Liver and kidney tissue was frozen in Tissue-Tek (Labtech, East Sussex, Britain) and 20-µm slices were prepared for autoradiography. A storage phosphor screen (Molecular Dynamics, Caesarea, Israel) was exposed to the sections for 18 h and scanned at a resolution of 100 µm/px with a STORM phosphor imager (Molecular Dynamics). PET image reconstruction and correlation with MR images was performed with Inveon Acquisition Workplace and Inveon Research Workplace, respectively, using a user-defined dynamic framing and an ordered subset expectation maximization (OSEM3D) algorithm. Regions of interest (ROIs) were drawn according to the acquired MR images and co-registered with the PET data to obtain time-activity curves (TACs).
# Statistical analyses are represented as mean values ± standard deviation. Analyses were performed using GraphPad Prism 9 and non-parametric t tests (comparison of two groups) and one-way ANOVA (comparison of more than two groups). Blood half-life was calculated using a two-phase decay fit in GraphPad Prism 8. p values < 0.05 were considered statistically significant according to the software (*p < 0.05, **p < 0.01, ***p < 0.001, ****p < 0.0001).
# [4] = Blood half-life, two-phase decay fit; assay type: in vivo, NOD.CB17-Prkdc^scid/J mice; details: calculated with two-phase decay fit
# Method: as §2, with “PET image reconstruction and correlation with MR images was performed with Inveon Acquisition Workplace and Inveon Research Workplace, respectively, using a user-defined dynamic framing and an ordered subset expectation maximization (OSEM3D) algorithm. Regions of interest (ROIs) were drawn according to the acquired MR images and co-registered with the PET data to obtain time-activity curves (TACs).” left out
# Statistical analyses are represented as mean values ± standard deviation. […] Blood half-life was calculated using a two-phase decay fit in GraphPad Prism 8. p values < 0.05 were considered statistically significant according to the software (*p < 0.05, **p < 0.01, ***p < 0.001, ****p < 0.0001).
# [5] = set-up: method as in PMID 32245901; details: cited from earlier work
# [6] = set-up: method as in Lynparza monograph, AstraZeneca; details: reported value; ref Lynparza monograph, AstraZeneca; cited from earlier work
# [7] = tested on: ABCB1 (encoding MDR1 P-glycoprotein); set-up: method as in PMID 24700236; details: cited from earlier work
# [8] = set-up: method as in PMID 30389822; details: cited from earlier work
# [9] = set-up: method as in PMID 30389822; details: cited from earlier work; remark: listed apart in the source
SMILES,logD [1],logP [1],Radiotracer uptake after acidic wash compared to medium wash (HCC1937 cells),Xenograft uptake (TACs from dynamic PET) (HCC1937 xenografts),tumor-to-muscle ratio (TMR) (HCC1937 xenografts; 1.5 h p.i.),tumor-to-blood ratio (TBR) (HCC1937 xenografts; 2.5 h p.i.),tumor-to-muscle ratio (TMR) (HCC1937 xenografts; 2.5 h p.i.),liver-to-kidney ratio (LKR) (HCC1937 xenografts; 2.5 h p.i.),Renal clearance / bladder uptake in PET images (HCC1937 xenografts),Blood half-life [4],other results
"O=C(c1ccc(F)nc1)N1CCN(C(=O)c2cc(Cc3n[nH]c(=O)c4ccccc34)ccc2F)CC1 [[^18F]FPyPARP, 4-(4-Fluoro-3-(4-(6-fluoronicotinoyl)piperazine-1-carbonyl)benzyl)phthalazine-1(2H)-one]",1.16,1.16,No difference,within the same range,1.99,3.99 ± 0.99 and 3.99,2.46,0.60,all animals exhibiting strong radioactive signal in the bladder,2.6 ± 1.4 min,"Serum stability [2]: no significant radiometabolites and good radiotracer stability over 240 min; Serum stability [3]: no significant radiometabolites and good radiotracer stability over 240 min; Change of liver-to-kidney ratio between the 1.5 and 2.5 h time points (HCC1937 xenografts; 1.5 h vs 2.5 h p.i.): decreased; Liver uptake (TACs) (HCC1937 xenografts; early time points, in direct comparison to [^18F]PARPi): lower uptake values"
O=C(c1ccc([18F])cc1)N1CCN(C(=O)c2cc(Cc3n[nH]c(=O)c4ccccc34)ccc2F)CC1 [[^18F]PARPi],2.09,2.09,significantly higher uptake,within the same range,5.3,3.41 ± 0.83,,1.37,some of the animals showed renal excretion,3 ± 0.7 min,Time of first appearance of a radiometabolite ([5]; first-in-human clinical studies): 25 min; Renal clearance ([5]; in humans): 30%
O=C(c1cc(Cc2n[nH]c(=O)c3ccccc23)ccc1F)N1CCN(C(=O)C2CC2)CC1 [olaparib],,,,,,,,,,,logD [6]: 1.49; Efflux transporter substrate [7]: efflux transporter of olaparib
O=C(c1cc(Cc2n[nH]c(=O)c3ccccc23)ccc1[18F])N1CCN(C(=O)C2CC2)CC1 [[^18F]olaparib],,,,,,,,,,,calculated logP [8]: 2.02; Clearance route [9]: only shows hepatobiliary clearance
O=C1NCCn2c(-c3ccc(OCC[18F])cc3)nc3cccc1c32 [[^18F]FTT],1.94,1.1,No difference,higher overall xenograft uptake,,2.46 ± 0.35 and 2.46,3.42,,no noticeable renal clearance,2.1 ± 0.5 min,tumor-to-liver ratio (TLR) (HCC1937 xenografts; 1.5 h and 2.5 h p.i.): significantly higher at both time points
